Assay results as given in US20230312561A1, “SOLID FORMS OF (Z)-METHYL 3-(((4-(N-METHYL-2-(4-METHYLPIPERAZIN-1-YL)ACETAMIDO)PHENYL)AMINO)(PHENYL)METHYLENE)-2-OXO-2,3-DIHYDRO-1H-PYRROLO[2,3-B]PYRIDINE-6-CARBOXYLATE AND SALTS THEREOF” (Angion Biomedica Corp., priority 2020, published 2023).
Blank lines part the entries; values can stand above or below the molecule they belong to.

Experiments:
[1] = Dynamic Vapor Sorption (DVS) analysis with XRPD after equilibration; assay type: physicochemical; settings: for moisture/water content on initial equilibration at 50% RH (DVS): beginning of analysis; for reversibility of water uptake (DVS): as relative humidity decreased
Protocol: Sorption isotherms were obtained using a Hiden Isochema moisture sorption analyzer (model IGAsorp), controlled by IGAsorp Systems Software V6.50.48. The sample was maintained at a constant temperature (25° C.) by the instrument controls. The humidity was controlled by mixing streams of dry and wet nitrogen, with a total flow of 250 mL·min^−1. The instrument was verified for relative humidity content by measuring three calibrated Rotronic salt solutions (10%, 50%, 88%). The weight change of the sample was monitored as a function of humidity by a microbalance (accuracy+/−0.005 mg). A defined amount of sample was placed in a tared mesh stainless steel basket under ambient conditions. A full experimental cycle typically consisted of three scans (sorption, desorption and sorption) at a constant temperature (25° C.) and 10% RH intervals over a 0-90% range (60 minutes for each humidity level). […]
This water content decreased as relative humidity decreased in the first desorption cycle.
The solid absorbed 3.39% water over the humidity range. […] The profile was similar to that of Form C in Example 7.2.

[2] = Drying studies of Compound 1 Hydrochloride (XRPD, TGA); assay type: physicochemical
Protocol: Compound 1 Hydrochloride Form A was then subjected to drying under various conditions.
Drying studies of Compound 1 Hydrochloride Form A (Type 1 Lot) were performed.
Variability in the drying profiles of different lots of Compound 1 Hydrochloride were noted, particularly with regards to the transition between Form A and Form C. The variable behavior appeared to depend upon the nature of the input Form A batch (e.g., how it was generated and then conditioned, if at all, prior to drying, and/or if excess hydrochloric acid was present).
Concentrated HCl (154 μL, 1 eqiuv) was added which clarified the suspension to a deep orange solution. The mixture was equilibrated for 30 minutes before cooling gradually to room temperature. A thin yellow suspension resulted. The solvent volume was reduced by 50% which thickened the suspension. The suspension was matured overnight, following which the solid was filtered to isolate the solids. The solid was air dried for ˜30 minutes giving a yellow solid (damp mass: 1.24 g; pH measured at 5.0). The XRPD pattern of the damp solid corresponded with Compound 1 Hydrochloride Form H. Analysis of the damp solid by DSC and TGA indicated a water content of 8.2%, which was fairly labile up ˜75° C.
Compound 1 Hydrochloride Form H was then subjected to a drying study under various conditions.
The solids were further subjected to prolonged drying.

[3] = Solid state stability under humid conditions (40° C./75% RH and 25° C./60% RH, two weeks); assay type: physicochemical
Protocol: Stability of Compound 1 Hydrochloride Forms A, B, C, and D was evaluated under humid conditions. Samples of Forms A, B, C, and D were stored at 40° C./75% RH and 25° C./60% RH for a period of two weeks (loosely capped glass vials with approx. 200 mg solid). Solids were then re-analyzed using methods described herein. A summary of the results is provided in Table 12 (after storage at 25° C./60% RH) and Table 13 (after storage at 40° C./75% RH).

[4] = Form stability on standing on bench or at 40° C./75% RH (XRPD); assay type: physicochemical
Protocol: Two samples of the solid were stored under glass with loose fitting lids on a bench and at 40° C./75% RH for a period of 5 days and re-analyzed by XRPD.
In an additional experiment, a sample of Form F was left to stand on a bench in a loosened vial for 48 hours.

[5] = Aqueous solubility of salt forms (25° C., 1, 4, 24 h); settings: deionized water; for XRPD: isolated solids
Protocol: Aqueous solubility of certain salt forms was assessed. Each solid (100 mg) was charged into a crystallization tube. Deionized water (1 mL) was added to each tube to give a suspension. The mixtures were equilibrated at 25° C. for 24 hours with sampling after 1 and 4 hours' equilibration. Solids were isolated and XRPD analysis obtained.

[6] = Dry in vacuo at 25° C., T = 4 h
[7] = Dry in vacuo at 25° C., T = 24 h
[8] = Dry in vacuo at 25° C., T = 48 h
[9] = Dry in vacuo at 25° C., T = 120 h
[10] = Dry in vacuo at 45° C., T = 4 h
[11] = Dry in vacuo at 45° C., T = 24 h
[12] = Dry in vacuo at 45° C., T = 120 h
[13] = Dry in vacuo at 70° C., T = 4 h
[14] = Dry in vacuo at 70° C., T = 24 h
[15] = Dry in vacuo at 70° C., T = 120 h
[16] = Form C prepared from Form A, Type 1 Lot
[17] = Form C prepared from Form A, Type 2 Lot
[18] = under glass with loose fitting lid, 5 days
[19] = Dry in vacuo at 25° C., T = 96 h
[20] = Dry in vacuo at 45° C., T = 96 h
[21] = Dry in vacuo at 70° C., T = 96 h

Molecule: COC(=O)c1ccc2c(c1)NC(=O)/C2=C(\Nc1ccc(N(C)C(=O)CN2CCN(C)CC2)cc1)c1ccccc1.Cl [Compound 1 Hydrochloride Form A (Type 2 Lot)]
XRPD analysis following equilibration at 0% RH ([1]; 0% RH): mixture of Form A and Form C
moisture/water content on initial equilibration at 50% RH (DVS) [1]: 6.39%
XRPD analysis following equilibration at 90% RH ([1]; 90% RH): predominantly Form A
uptake of water following initial equilibration at 50% RH during first desorption cycle (DVS) ([1]; first desorption cycle): −7%
water absorbed over the humidity range, first sorption cycle (DVS) ([1]; first sorption cycle): 8.66%
TGA (%) [2, 6]: 9.96%
TGA (%) [2, 7]: 7.09%
XRPD [2, 7]: Form A
TGA (%) [2, 8]: 6.61%
XRPD [2, 8]: Form A
TGA (%) [2, 9]: 3.45%
TGA (%) [2, 10]: 9.89%
TGA (%) [2, 11]: 6.93%
TGA (%) ([2]; Dry in vacuo at 45° C., T = 48 h): 6.63%
TGA (%) [2, 12]: 2.27%
TGA (%) [2, 13]: 8.93%
TGA (%) [2, 14]: 6.49%
TGA (%) ([2]; Dry in vacuo at 70° C., T = 48 h): 6.68%
TGA (%) [2, 15]: 2.17%
TGA (%) ([2]; T = 0, before drying): 14.83%
level of hydration after extended drying ([2]; summary of drying studies, Table 10): reduced to 2-3%
XRPD After Storage ([3]; 25° C./60% RH): Form A/C
XRPD After Storage ([3]; 40° C./75% RH): amorphous

Molecule: COC(=O)c1ccc2c(c1)NC(=O)/C2=C(\Nc1ccc(N(C)C(=O)CN2CCN(C)CC2)cc1)c1ccccc1.Cl [Compound 1 Hydrochloride Form B]
XRPD analysis following equilibration at 0% RH ([1]; 0% RH): Form F
moisture/water content on initial equilibration at 50% RH (DVS) [1]: 4.2%
XRPD analysis following equilibration at 90% RH ([1]; 90% RH): Form H
level of water reached in initial sorption step after 70% RH (DVS) ([1]; above 70% RH): 17.3%
reversibility of water uptake (DVS) [1]: reversible
loss of water on the initial desorption step (DVS) ([1]; initial desorption step): ~1.5%
water content after the second desorption step (DVS) ([1]; second desorption step): 1.1%
TGA After Storage: further loss above/post 200° C. ([3]; 25° C./60% RH): 1.41% post 200 °C
TGA After Storage: weight reduction to 60° C. ([3]; 25° C./60% RH): Weight reduction of 1.69% to 60 °C
XRPD After Storage ([3]; 25° C./60% RH): Form B
TGA After Storage: further loss above/post 200° C. ([3]; 40° C./75% RH): followed by further loss of 1.4%
TGA After Storage: weight reduction to 60° C. ([3]; 40° C./75% RH): Weight reduction of 1.0% to 60 °C
XRPD After Storage ([3]; 40° C./75% RH): Form H

Molecule: COC(=O)c1ccc2c(c1)NC(=O)/C2=C(\Nc1ccc(N(C)C(=O)CN2CCN(C)CC2)cc1)c1ccccc1.Cl [Compound 1 Hydrochloride Form C]
XRPD analysis following equilibration at 0% RH ([1]; 0% RH): remained Form C
XRPD analysis following equilibration at 90% RH ([1]; 90% RH): Form A
water absorbed above 70% RH (DVS) [1, 16]: 8.38%
water absorbed up to 70% RH, initial sorption step (DVS) [1, 16]: 1.44%
water content reached over the humidity range on second sorption cycle (DVS) [1, 16]: 10%
XRPD analysis following equilibration at 0% RH [1, 17]: remained Form C
XRPD analysis following equilibration at 90% RH [1, 17]: remained Form C
water absorbed over the humidity range (DVS) [1, 17]: 3.39%
water absorbed up to 80% RH (DVS) [1, 17]: 1.55%
reversibility of water uptake (DVS) [1]: reversible
form after equilibration in water (damp solid, XRPD) ([2]; equilibrated in water for 48 hours): readily converted to Form A
TGA After Storage: further loss above/post 200° C. ([3]; 25° C./60% RH): 0.98% post 200 °C
XRPD After Storage ([3]; 25° C./60% RH): Form C
TGA After Storage: further loss above/post 200° C. ([3]; 40° C./75% RH): 1.0% post 200 °C
XRPD After Storage ([3]; 40° C./75% RH): Form C
XRPD after storage at 40° C./75% RH [4, 18]: no change from Form C
XRPD after storage on a bench [4, 18]: no change from Form C

Molecule: COC(=O)c1ccc2c(c1)NC(=O)/C2=C(\Nc1ccc(N(C)C(=O)CN2CCN(C)CC2)cc1)c1ccccc1.Cl [Compound 1 Hydrochloride Form D]
TGA After Storage: further loss above/post 200° C. ([3]; 25° C./60% RH): 1.51% post 200 °C
XRPD After Storage ([3]; 25° C./60% RH): Form D
TGA After Storage: further loss above/post 200° C. ([3]; 40° C./75% RH): 1.68% post 200 °C
XRPD After Storage ([3]; 40° C./75% RH): Form D

behaviour on prolonged drying ([2]; all drying temperatures (25, 45, 70° C.)): robust toward further changes
form after standing on a bench in a loosened vial (XRPD and TGA) ([4]; 48 hours): fully converted into Form H
Molecule: COC(=O)c1ccc2c(c1)NC(=O)C2=C(Nc1ccc(N(C)C(=O)CN2CCN(C)CC2)cc1)c1ccccc1.Cl [Compound 1 Hydrochloride Form F]

Molecule: COC(=O)c1ccc2c(c1)NC(=O)/C2=C(\Nc1ccc(N(C)C(=O)CN2CCN(C)CC2)cc1)c1ccccc1.Cl [Compound 1 Hydrochloride Form H]
TGA (%) [2, 6]: 0%
XRPD [2, 6]: Form F
XRPD [2, 7]: Form F
TGA (%) [2, 19]: 0%
XRPD [2, 19]: Form F
XRPD [2, 9]: Form F
TGA (%) [2, 10]: 0%
XRPD [2, 10]: Form F
XRPD [2, 11]: Form F
TGA (%) [2, 20]: 0%
XRPD [2, 20]: Form F
XRPD [2, 12]: Form F
TGA (%) [2, 13]: 0%
XRPD [2, 13]: Form F
XRPD [2, 14]: Form F
TGA (%) [2, 21]: 0%
XRPD [2, 21]: Form F
XRPD [2, 15]: Form F
TGA (%) ([2]; T = 0, before drying): 8.24%
XRPD ([2]; T = 0, before drying): Form H

Molecule: COC(=O)c1ccc2c(c1)NC(=O)/C2=C(\Nc1ccc(N(C)C(=O)CN2CCN(C)CC2)cc1)c1ccccc1.Cl [HCl (Form A, Type 1 Lot)]
Solubility ([5]; t = 1 h): 70.37 mg/mL
pH ([5]; t = 1 h): 3.34
Solubility ([5]; t = 4 h): 50.54 mg/mL
Solubility ([5]; t = 24 h): 52.88 mg/mL
pH ([5]; t = 24 h): 3.28

Molecule: COC(=O)c1ccc2c(c1)NC(=O)/C2=C(\Nc1ccc(N(C)C(=O)CN2CCN(C)CC2)cc1)c1ccccc1.Cl [HCl (Form A, Type 2 Lot)]
Solubility ([5]; t = 1 h): 46.11 mg/mL
pH ([5]; t = 1 h): 5.22
XRPD ([5]; t = 1 h): Form A
Solubility ([5]; t = 4 h): 43.78 mg/mL
XRPD ([5]; t = 4 h): Form A
Solubility ([5]; t = 24 h): 40.58 mg/mL
pH ([5]; t = 24 h): 5.25
XRPD ([5]; t = 24 h): Form A

Molecule: Maleate
Solubility ([5]; t = 1 h): 12.50 mg/mL
pH ([5]; t = 1 h): 6.35
Solubility ([5]; t = 4 h): 12.39 mg/mL
Solubility ([5]; t = 24 h): 9.45 mg/mL
pH ([5]; t = 24 h): 6.40

Molecule: Tosylate
Solubility ([5]; t = 1 h): 2.07 mg/mL
pH ([5]; t = 1 h): 6.46
Solubility ([5]; t = 4 h): 2.02 mg/mL
Solubility ([5]; t = 24 h): 2.39 mg/mL
pH ([5]; t = 24 h): 6.66
